Where a name gives a salt, the structure may show the parent alone.
Biological target: T1, HCV polymerase (Hepatitis C virus genotype 1b, UniProt P26663)
T1 construct: a region encoding NS5B (J Virol 1991 March, 65(3), 1105-13, 544 amino acids after deletion of 47 amino acids on the C-terminal); 6xHis (C); made in house; host or cells: Escherichia coli
Experiment: biochemical
Set-up: species or system HCV BK strain
In short: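 Recombinant HCV BK-strain NS5B (C-terminal 47 aa deleted, His6-tagged, E. coli), 0.5 μg/ml, run with 5 μg/ml in vitro-transcribed RNA template (polyU/3′X), ATP/GTP/CTP 50 μM, UTP 2 μM plus [3H]UTP, pH 7.5, 25° C, 90 min. TCA-precipitated RNA counted by scintillation; IC50 from activity with vs without compound.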

T1 sequence (P26663 2420-2963): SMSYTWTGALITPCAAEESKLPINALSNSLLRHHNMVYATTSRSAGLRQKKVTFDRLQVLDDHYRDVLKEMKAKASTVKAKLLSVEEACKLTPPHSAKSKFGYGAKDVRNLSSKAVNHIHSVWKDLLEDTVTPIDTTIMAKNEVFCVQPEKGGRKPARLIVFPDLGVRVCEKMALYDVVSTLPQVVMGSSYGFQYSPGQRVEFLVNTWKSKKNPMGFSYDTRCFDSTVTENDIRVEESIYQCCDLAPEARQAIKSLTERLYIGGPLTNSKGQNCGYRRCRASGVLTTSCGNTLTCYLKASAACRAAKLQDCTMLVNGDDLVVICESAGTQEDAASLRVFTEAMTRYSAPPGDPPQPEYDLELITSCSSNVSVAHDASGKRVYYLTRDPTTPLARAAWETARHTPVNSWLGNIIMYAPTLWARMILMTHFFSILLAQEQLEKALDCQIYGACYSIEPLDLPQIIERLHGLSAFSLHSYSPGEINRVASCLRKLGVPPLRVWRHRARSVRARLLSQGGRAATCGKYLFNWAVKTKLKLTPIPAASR

Structure (SMILES)	IC50 [nM]
O=C(O)c1ccc2c(C3CCCCC3)c3n(c2c1)CCN(CCN1CCCCCC1)c1ccccc1-3 [Example 1-83, 5-[2-(azepan-1-yl)ethyl]-13-cyclohexyl-6,7-dihydro-5H-benzo[5,6][1,4]diazepino[7,1-a]indole-10-carboxylic acid dihydrochloride]	< 100
CCN1CCN(C(=O)CN2CCn3c(c(C4CCCCC4)c4ccc(C(=O)NC)cc43)-c3ccccc32)CC1 [Example 1-84, 13-cyclohexyl-5-[2-(4-ethylpiperazin-1-yl)-2-oxoethyl]-N-methyl-6,7-dihydro-5H-benzo[5,6][1,4]diazepino[7,1-a]indole-10-carboxamide]	< 100
CCN1CCN(C(=O)CN2CCn3c(c(C4CCCCC4)c4ccc(C(=O)NCCO)cc43)-c3ccccc32)CC1 [Example 1-85, 13-cyclohexyl-5-[2-(4-ethylpiperazin-1-yl)-2-oxoethyl]-N-(2-hydroxyethyl)-6,7-dihydro-5H-benzo[5,6][1,4]diazepino[7,1-a]indole-10-carboxamide]	< 100
CCN1CCN(C(=O)CN2CCn3c(c(C4CCCCC4)c4ccc(C(=O)NC(C)(C)CO)cc43)-c3ccccc32)CC1 [Example 1-86, 13-cyclohexyl-5-[2-(4-ethylpiperazin-1-yl)-2-oxoethyl]-N-(2-hydroxy-1,1-dimethylethyl)-6,7-dihydro-5H-benzo[5,6][1,4]diazepino[7,1-a]indole-10-carboxamide]	100 to 1000
CN(C)C(=O)N1CCN(CCN2CCn3c(c(C4CCCCC4)c4ccc(C(=O)O)cc43)-c3ccccc32)CC1 [Example 1-87, 13-cyclohexyl-5-[2-(4-dimethylcarbamoylpiperazin-1-yl)ethyl]-6,7-dihydro-5H-benzo[5,6][1,4]diazepino[7,1-a]indole-10-carboxylic acid dihydrochloride]	< 100
O=C(O)c1ccc2c(C3CCCCC3)c3n(c2c1)CCN(CCN1CCN(C(=O)c2ccccc2)CC1)c1ccccc1-3 [Example 1-88, 5-[2-(4-benzoylpiperazin-1-yl)ethyl]-13-cyclohexyl-6,7-dihydro-5H-benzo[5,6][1,4]diazepino[7,1-a]indole-10-carboxylic acid dihydrochloride]	< 100
CC(C)(C)OC(=O)N1CCC(CCN2CCn3c(c(C4CCCCC4)c4ccc(C(=O)O)cc43)-c3ccccc32)CC1 [Example 1-89, 5-[2-(1-tert-butoxycarbonylpiperidin-4-yl)ethyl]-13-cyclohexyl-6,7-dihydro-5H-benzo[5,6][1,4]diazepino[7,1-a]indole-10-carboxylic acid]	< 100
O=C(O)c1ccc2c(C3CCCCC3)c3n(c2c1)CCN(CCN1CCCC1=O)c1ccccc1-3 [Example 1-90, 13-cyclohexyl-5-[2-(2-oxopyrrolidin-1-yl)ethyl]-6,7-dihydro-5H-benzo[5,6][1,4]diazepino[7,1-a]indole-10-carboxylic acid monohydrochloride]	< 100
CS(=O)(=O)N1CCN(CCN2CCn3c(c(C4CCCCC4)c4ccc(C(=O)O)cc43)-c3ccccc32)CC1 [Example 1-91, 13-cyclohexyl-5-[2-(4-methanesulfonylpiperazin-1-yl)ethyl]-6,7-dihydro-5H-benzo[5,6][1,4]diazepino[7,1-a]indole-10-carboxylic acid dihydrochloride]	< 100
CC(=O)N1CCC(CCN2CCn3c(c(C4CCCCC4)c4ccc(C(=O)O)cc43)-c3ccccc32)CC1 [Example 1-92, 5-[2-(1-acetylpiperidin-4-yl)ethyl]-13-cyclohexyl-6,7-dihydro-5H-benzo[5,6][1,4]diazepino[7,1-a]indole-10-carboxylic acid monohydrochloride]	< 100
CCN1CCC(CCN2CCn3c(c(C4CCCCC4)c4ccc(C(=O)O)cc43)-c3ccccc32)CC1 [Example 1-93, 13-cyclohexyl-5-[2-(1-ethylpiperidin-4-yl)ethyl]-6,7-dihydro-5H-benzo[5,6][1,4]diazepino[7,1-a]indole-10-carboxylic acid dihydrochloride]	< 100

— US20070049593A1 (priority 2004, published 2007)
